The supplement of paper PMC13380429

What was measured:
Settings in all cases: 72 h
Caco-2 [1] = assay: cell viability relative to DMSO; higher = less toxic
Calu-3 [2] = assay: as above
HepG2 [3] = assay: as above
U2OS [4] = assay: as above
Vero E6 [5] = assay: as above
Calu-3 [6] = assay: relative viability EC50 (midpoint between 100% and the lowest measured viability); higher = less toxic
HepG2 [7] = assay: as above
U2OS [8] = assay: as above
Caco-2 [9] = assay: drug sensitivity score (DSS) for viability; higher = more toxic; extreme values may be limits of the assay
Calu-3 [10] = assay: as above
HepG2 [11] = assay: as above
U2OS [12] = assay: as above
Vero E6 [13] = assay: as above
Vero E6 [14] = assay: relative viability EC50 (midpoint between 100% and the lowest measured viability); higher = less toxic
Caco-2 [15] = assay: as above

Compound	cell viability (Caco-2 [1]; 1 nM)	cell viability (Caco-2 [1]; 10 nM)	cell viability (Caco-2 [1]; 100 nM)	cell viability (Caco-2 [1]; 1000 nM)	cell viability (Caco-2 [1]; 10000 nM)	cell viability (Calu-3 [2]; 1 nM)	cell viability (Calu-3 [2]; 10 nM)	cell viability (Calu-3 [2]; 100 nM)	cell viability (Calu-3 [2]; 1000 nM)	cell viability (Calu-3 [2]; 10000 nM)	cell viability (HepG2 [3]; 1 nM)	cell viability (HepG2 [3]; 10 nM)	cell viability (HepG2 [3]; 100 nM)	cell viability (HepG2 [3]; 1000 nM)	cell viability (HepG2 [3]; 10000 nM)	cell viability (U2OS [4]; 1 nM)	cell viability (U2OS [4]; 10 nM)	cell viability (U2OS [4]; 100 nM)	cell viability (U2OS [4]; 1000 nM)	cell viability (U2OS [4]; 10000 nM)	cell viability (Vero E6 [5]; 1 nM)	cell viability (Vero E6 [5]; 10 nM)	cell viability (Vero E6 [5]; 100 nM)	cell viability (Vero E6 [5]; 1000 nM)	cell viability (Vero E6 [5]; 10000 nM)	relative viability EC50 (Calu-3 [6])	relative viability EC50 (HepG2 [7])	relative viability EC50 (U2OS [8])	drug sensitivity score (Caco-2 [9])	drug sensitivity score (Calu-3 [10])	drug sensitivity score (HepG2 [11])	drug sensitivity score (U2OS [12])	drug sensitivity score (Vero E6 [13])	relative viability EC50 (Vero E6 [14])	relative viability EC50 (Caco-2 [15])
C[C@@H]1COC(Nc2ccc3ncnc(Nc4ccc(OCc5nccs5)c(Cl)c4)c3c2)=N1	95.7%	104%	97.2%	81.6%	67.7%	103%	107%	81.8%	41.3%	36.1%	100%	100%	94.8%	92.3%	98.8%	97.8%	96.7%	98.9%	93.3%	90%	107%	99.5%	94%	70.7%	67%	0.184 µM	> 10 µM	> 10 µM	3.4	13.2	0	0	5.6	–	–
Cc1c(C2CCN(CCc3ccccc3)CC2)noc1-c1ccc(Cl)cc1	103%	106%	99.9%	98.8%	68.6%	99.9%	104%	101%	108%	80.9%	102%	107%	96.5%	95.8%	71.9%	102%	98.7%	101%	97.3%	96.6%	105%	99.4%	103%	98.3%	90.3%	> 10 µM	–	> 10 µM	1.5	0.3	1.9	0	0	> 10 µM	–
Cc1cc(CCC[C@H](CC(=O)NO)C(=O)N[C@H](C(=O)N[C@H](C)c2ccccc2)C(C)(C)C)ccc1-c1ccccc1	105%	95.2%	110%	99.4%	51.4%	101%	90.9%	91.8%	94.8%	77.5%	110%	116%	99.6%	106%	35.1%	99.1%	102%	97.3%	99.6%	46.7%	103%	104%	99.9%	97%	67.5%	> 10 µM	3.6 µM	3.12 µM	2.6	1.1	3.1	2.9	1.9	–	–
O=C(NCC(=O)N1CC[C@H](N[C@H]2CC[C@@](O)(c3ccc(-c4ncccn4)cn3)CC2)C1)c1cccc(C(F)(F)F)c1	104%	108%	92.7%	92.7%	96.8%	–	–	–	–	–	103%	97.6%	105%	97.4%	100%	97.8%	105%	97.7%	101%	96.4%	107%	102%	101%	99.4%	98.7%	–	> 10 µM	> 10 µM	0	–	0	0	0	> 10 µM	> 10 µM
Oc1cc2c(cc1O)C(c1ccccc1)CNCC2 (stereo unspecified)	–	–	–	–	–	77.4%	103%	78.6%	99.6%	78%	110%	104%	108%	91.8%	107%	102%	102%	97.3%	104%	99%	104%	98.2%	103%	96.9%	106%	> 10 µM	> 10 µM	> 10 µM	–	2.2	0	0	0	> 10 µM	–
CCCCCCCCCCCCCCCC=O [1-hexadecanal]	104%	98%	85.6%	95.2%	108%	–	–	–	–	–	109%	105%	102%	95.8%	97%	102%	104%	96.3%	104%	97.5%	106%	98.4%	106%	96.5%	102%	–	> 10 µM	> 10 µM	0	–	0	0	0	> 10 µM	> 10 µM
CC(=C\c1ccc(Cl)cc1)/C(C)=N/O [AP-18]	99.5%	104%	90.4%	98.1%	95.7%	–	–	–	–	–	103%	95.3%	89.6%	101%	107%	100%	106%	97.6%	103%	100%	104%	106%	102%	105%	99.3%	–	> 10 µM	> 10 µM	0	–	0	0	0	> 10 µM	> 10 µM
Cc1c(C)c2c(c(C)c1O)CCC(C)(C)O2 [APC-100]	90.4%	118%	100%	131%	71.8%	96.6%	95.1%	100%	104%	100%	120%	88.6%	120%	95.7%	99.2%	91.4%	100%	94.3%	100%	102%	93.5%	85.4%	99.1%	88.1%	102%	> 10 µM	> 10 µM	> 10 µM	0.6	0	0	0	0	> 10 µM	–
Cc1c(Cl)cccc1S(=O)(=O)Nc1nc(NCCc2ccccc2)nc2c1CN(Cc1ccccc1)CC2 [CaMKII-IN-1]	98.9%	96.1%	93%	102%	83.1%	–	–	–	–	–	88.3%	97.1%	90.6%	101%	93.6%	102%	102%	105%	98.9%	88.7%	95.3%	104%	98.2%	97.7%	108%	–	> 10 µM	> 10 µM	0.3	–	0	0	0	> 10 µM	> 10 µM
NC(=O)c1nc(F)cnc1O [Favipiravir]	–	–	–	–	–	101%	93.2%	92.5%	94.6%	107%	104%	102%	109%	91.8%	98.2%	–	–	–	–	–	–	–	–	–	–	> 10 µM	> 10 µM	–	–	0	0	–	–	–	–
O=C(NOCCO)c1ccc2cncn2c1Nc1ccc(I)cc1F [GDC-0623]	93.5%	79.5%	64.6%	61.8%	58.2%	102%	78.5%	52.4%	36.4%	31.1%	91.8%	51.2%	23.7%	19.6%	12.4%	95.1%	92.6%	93.4%	62%	25.5%	98.4%	81.9%	55.5%	49.9%	49.3%	0.034 µM	0.0088 µM	0.916 µM	13.8	19.7	31.7	8.6	16.8	0.017 µM	–
COc1cc2nc(C3CC3)nc(N3CCN(c4ccccc4OC)CC3)c2cc1OC [ML314]	100%	91.5%	97.9%	94.8%	59%	96.6%	101%	102%	92.7%	78.3%	102%	92.4%	100%	91.6%	54.1%	96.5%	97.4%	91.5%	98.2%	87.1%	96.9%	109%	95%	87.6%	62.9%	> 10 µM	–	> 10 µM	2.9	1.6	3.8	0	3.1	–	–
C=C(C)[C@@H]1CC[C@]2(CO)CC[C@]3(C)[C@H](CC[C@@H]4[C@@]5(C)CC[C@H](O)C(C)(C)[C@@H]5CC[C@]43C)[C@@H]12 [NSC-4644]	101%	73.1%	75.8%	74.1%	91.1%	103%	103%	102%	106%	90.3%	112%	99.1%	96.1%	81.2%	89.8%	96.6%	95.6%	103%	92%	98.4%	84.1%	95.4%	96.3%	92%	106%	> 10 µM	> 10 µM	> 10 µM	10.8	0	2.9	0	0	> 10 µM	–
CC(O)c1cc(C(=O)N[C@@H](C)Cn2ccc(-c3ccc(C#N)c(Cl)c3)n2)n[nH]1 (stereo partly specified) [ODM-201]	104%	89.8%	102%	106%	103%	–	–	–	–	–	88.1%	111%	92.6%	112%	105%	98.3%	98.2%	103%	93.4%	111%	95.6%	101%	93.1%	94.5%	103%	–	> 10 µM	> 10 µM	0	–	0	0	0	> 10 µM	> 10 µM
CCOC(=O)c1cc2ccc(O)cc2oc1=O [YZ9]	98.6%	94.3%	102%	98.8%	99.5%	–	–	–	–	–	98.6%	103%	107%	96.5%	117%	99.3%	94.7%	92.9%	103%	104%	92%	95.5%	96.3%	101%	102%	–	> 10 µM	> 10 µM	0	–	0	0	0	> 10 µM	> 10 µM
O=C(O)CCCCC(=O)O [adipic-acid]	89%	87%	95.1%	96.6%	105%	–	–	–	–	–	104%	108%	94.4%	97.4%	105%	102%	96.7%	99.6%	103%	104%	94.9%	99.9%	89.3%	93.1%	102%	–	> 10 µM	> 10 µM	0	–	0	0	0	> 10 µM	> 10 µM
